Experimental findings from patent US9186360B2, “Treatment of respiratory disorders using TRPA1 antagonists” (GLENMARK PHARMACEUTICALS S.A., priority 2011, dated 2015) are described below.

Holding throughout (format): cell-based
The target of one experiment is human TRPV4 (Homo sapiens (Human), UniProt Q9HBA0). The experiment can be described thus: Radiometric calcium selectivity assay, CHO cells expressing human TRPV4 (4α-phorbol 12,13-didecanoate). The settings on record: read-out: IC50 values hTRPV4. Here is the method: (§1) For selectivity screening, CHO cells stably expressing human TRPV1, human TRPV3, human TRPV4, or human TRPM8 were generated in-house and maintained in DMEM F-12 supplemented with 10% FBS and G418. All the cell types were cultured at 37° C. in humidified air containing 5% CO2. Radiometric calcium assay was performed as described above with some minor modifications. Assay was carried out in total volume of 200 μl at 30° C. (for TRPV1), 32° C. (for TRPV3) and 25° C. (for TRPV4 and TRPM8). Agonists used for selectivity screening of the different TRPs are: Capsaicin for TRPV1,2-aminoethoxydiphenyl borate for TRPV3, 4α-phorbol 12,13-didecanoate for TRPV4 and Icilin for TRPM8. After 2-5 minutes of agonist treatment, drug was washed and lysed in lysis buffer as mentioned above. Radioactivity in the lysate was measured in Packard Top count after addition of liquid scintillant.
Chain of human TRPV4 (Q9HBA0 whole entry): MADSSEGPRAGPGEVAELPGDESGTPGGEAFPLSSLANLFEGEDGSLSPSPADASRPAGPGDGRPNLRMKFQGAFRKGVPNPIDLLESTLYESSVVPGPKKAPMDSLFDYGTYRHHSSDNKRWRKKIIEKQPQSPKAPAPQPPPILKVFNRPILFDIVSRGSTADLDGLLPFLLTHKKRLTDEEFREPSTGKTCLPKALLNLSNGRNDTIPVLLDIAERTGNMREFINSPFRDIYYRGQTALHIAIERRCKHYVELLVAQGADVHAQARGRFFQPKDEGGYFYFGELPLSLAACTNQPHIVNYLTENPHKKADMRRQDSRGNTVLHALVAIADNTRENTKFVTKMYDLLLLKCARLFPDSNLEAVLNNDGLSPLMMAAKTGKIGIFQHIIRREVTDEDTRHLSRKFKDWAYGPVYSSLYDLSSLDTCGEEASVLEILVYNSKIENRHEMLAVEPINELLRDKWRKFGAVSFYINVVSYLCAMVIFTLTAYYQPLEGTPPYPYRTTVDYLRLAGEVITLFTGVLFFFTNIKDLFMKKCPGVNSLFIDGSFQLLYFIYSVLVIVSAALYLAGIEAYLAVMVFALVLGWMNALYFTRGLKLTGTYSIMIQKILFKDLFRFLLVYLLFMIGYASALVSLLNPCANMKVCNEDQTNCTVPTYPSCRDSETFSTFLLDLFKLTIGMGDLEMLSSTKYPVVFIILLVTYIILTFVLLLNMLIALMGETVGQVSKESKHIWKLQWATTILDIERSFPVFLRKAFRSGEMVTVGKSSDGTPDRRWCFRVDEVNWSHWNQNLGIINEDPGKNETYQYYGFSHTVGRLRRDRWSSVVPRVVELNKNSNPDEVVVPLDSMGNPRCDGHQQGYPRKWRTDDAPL

Another experiment has as its target human TRPV3 (Homo sapiens (Human), UniProt Q8NET8). The experiment can be described thus: Radiometric calcium selectivity assay, CHO cells expressing human TRPV3 (2-aminoethoxydiphenyl borate). The settings on record: read-out: IC50 values hTRPV3. Here is the method:
as §1

Another experiment addresses human TRPM8 (Homo sapiens (Human), UniProt Q7Z2W7). The experiment can be described thus: Radiometric calcium selectivity assay, CHO cells expressing human TRPM8 (icilin). Conditions: read-out: IC50 values hTRPM8. Here is the method:
as §1

The next experiment has as its target human TRPV1 (Homo sapiens (Human), UniProt Q8NER1). The experiment can be described thus: Radiometric calcium selectivity assay, CHO cells expressing human TRPV1 (capsaicin). Conditions: read-out: IC50 values hTRPV1. Here is the method: as §1
Another experiment concerns the target human TRPA1 (Homo sapiens (Human), UniProt O75762). The experiment can be described thus: 45Calcium uptake assay, AITC induced, human TRPA1 expressing CHO cells. Conditions: AITC 30 micromolar, read-out: IC50 values hTRPA1. Here is the method: As contemplated herein, the IC50 value is measured by the following method. The inhibition of TRPA1 receptor activation is measured as inhibition of allylisothiocyanate (AITC) induced cellular uptake of radioactive calcium. Test solution of test compound is prepared in a suitable solvent using appropriate method. Human TRPA1 expressing CHO cells are grown in suitable medium. Cells are treated with test compounds followed by addition of AITC. Cells are washed and lysed. Radioactivity in the lysate is measured in Packard Top count after addition of liquid scintillant. The concentration response curves for compounds are plotted as a % of maximal response obtained in the absence of test antagonist, and the IC50 values are calculated from such concentration response curve by nonlinear regression analysis using GraphPad PRISM software.
The illustrative TRPA1 antagonists of the present invention were screened for TRPA1 activity according to a modified procedure described in Tóth, A. et al., Life Sciences 2003, 73, 487-498. The screening of the compounds can be carried out by other methods and procedures known to persons skilled in the art.
Screening for TRPA1 Antagonist Using the 45Calcium Uptake Assay:
The inhibition of TRPA1 receptor activation was measured as inhibition of allylisothiocyanate (AITC) induced cellular uptake of radioactive calcium. Test compounds were dissolved in DMSO to prepare 10 mM stock solution and then diluted using plain medium with 0.1% BSA and 1.8 mM CaCl2 to get desired concentration. Final concentration of DMSO in the reaction was 0.5% (v/v). Human TRPA1 expressing CHO cells were grown in F-12 DMEM medium with 10% FBS, 1% penicillin-streptomycin solution, and 400 μg/ml of G-418. Cells were seeded 24 h prior to the assay in 96 well plates so as to get ˜50,000 cells per well on the day of experiment. Cells were treated with test compounds for 10 min followed by addition of AITC at a final concentration of 30 micromolar and 5 μCi/ml 45Ca+2 for 3 min at 25° C. Cells were washed and lysed using buffer containing 1% Triton X-100, 0.1% deoxycholate and 0.1% SDS. Radioactivity in the lysate was measured in Packard Top count after addition of liquid scintillant.
Concentration response curves were plotted as a % of maximal response obtained in the absence of test antagonist. IC50 value was calculated from concentration response curve by nonlinear regression analysis using GraphPad PRISM software.

pIC50: −log10 of the molar value.

Chain of human TRPV1 (Q8NER1 whole entry): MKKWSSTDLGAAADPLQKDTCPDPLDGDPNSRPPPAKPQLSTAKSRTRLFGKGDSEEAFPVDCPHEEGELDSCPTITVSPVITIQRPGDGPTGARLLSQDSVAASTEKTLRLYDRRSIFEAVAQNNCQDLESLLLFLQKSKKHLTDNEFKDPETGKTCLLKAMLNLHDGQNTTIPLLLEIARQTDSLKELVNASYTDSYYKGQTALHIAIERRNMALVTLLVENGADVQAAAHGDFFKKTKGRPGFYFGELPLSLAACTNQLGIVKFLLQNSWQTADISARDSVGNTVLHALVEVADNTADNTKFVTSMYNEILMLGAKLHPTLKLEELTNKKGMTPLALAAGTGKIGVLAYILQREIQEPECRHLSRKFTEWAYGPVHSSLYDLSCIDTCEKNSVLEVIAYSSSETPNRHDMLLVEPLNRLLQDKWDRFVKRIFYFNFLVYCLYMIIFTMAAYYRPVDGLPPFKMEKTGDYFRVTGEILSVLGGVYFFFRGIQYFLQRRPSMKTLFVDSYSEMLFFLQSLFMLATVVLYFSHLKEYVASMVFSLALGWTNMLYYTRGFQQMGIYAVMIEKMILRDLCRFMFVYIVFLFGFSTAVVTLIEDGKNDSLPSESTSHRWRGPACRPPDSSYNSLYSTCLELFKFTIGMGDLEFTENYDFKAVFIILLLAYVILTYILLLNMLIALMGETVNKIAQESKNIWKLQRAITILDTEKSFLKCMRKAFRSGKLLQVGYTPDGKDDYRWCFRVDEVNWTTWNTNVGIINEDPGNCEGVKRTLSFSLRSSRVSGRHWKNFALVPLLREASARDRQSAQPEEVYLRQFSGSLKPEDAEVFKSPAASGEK
Chain of human TRPM8 (Q7Z2W7 whole entry): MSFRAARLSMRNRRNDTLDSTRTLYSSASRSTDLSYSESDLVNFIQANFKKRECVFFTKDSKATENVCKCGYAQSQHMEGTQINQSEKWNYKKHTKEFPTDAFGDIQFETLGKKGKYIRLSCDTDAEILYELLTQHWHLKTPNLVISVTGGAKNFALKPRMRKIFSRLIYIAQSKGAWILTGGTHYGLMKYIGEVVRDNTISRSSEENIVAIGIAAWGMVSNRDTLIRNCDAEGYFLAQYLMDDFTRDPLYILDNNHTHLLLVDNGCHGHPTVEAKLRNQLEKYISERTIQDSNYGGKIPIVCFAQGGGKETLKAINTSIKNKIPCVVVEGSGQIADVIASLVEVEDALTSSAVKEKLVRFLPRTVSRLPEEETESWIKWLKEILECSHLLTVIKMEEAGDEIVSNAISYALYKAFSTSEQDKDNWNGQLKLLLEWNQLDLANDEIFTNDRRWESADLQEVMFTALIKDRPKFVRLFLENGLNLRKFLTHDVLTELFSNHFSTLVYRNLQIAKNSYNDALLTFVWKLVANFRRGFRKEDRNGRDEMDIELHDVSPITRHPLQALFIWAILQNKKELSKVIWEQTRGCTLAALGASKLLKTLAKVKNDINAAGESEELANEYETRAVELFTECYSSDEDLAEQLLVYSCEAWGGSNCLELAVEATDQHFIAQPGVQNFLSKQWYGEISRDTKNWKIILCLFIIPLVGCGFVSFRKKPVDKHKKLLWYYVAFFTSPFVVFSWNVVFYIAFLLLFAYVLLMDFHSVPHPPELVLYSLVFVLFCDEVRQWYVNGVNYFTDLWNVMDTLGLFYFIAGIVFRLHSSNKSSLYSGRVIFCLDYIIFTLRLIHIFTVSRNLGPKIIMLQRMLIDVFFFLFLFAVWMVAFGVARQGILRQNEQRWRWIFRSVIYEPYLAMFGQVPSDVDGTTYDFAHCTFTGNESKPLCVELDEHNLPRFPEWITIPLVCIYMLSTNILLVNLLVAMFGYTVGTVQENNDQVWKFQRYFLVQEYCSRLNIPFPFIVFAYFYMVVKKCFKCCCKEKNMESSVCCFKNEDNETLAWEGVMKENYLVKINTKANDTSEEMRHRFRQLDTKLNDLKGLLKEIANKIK
Chain of human TRPV3 (Q8NET8 whole entry): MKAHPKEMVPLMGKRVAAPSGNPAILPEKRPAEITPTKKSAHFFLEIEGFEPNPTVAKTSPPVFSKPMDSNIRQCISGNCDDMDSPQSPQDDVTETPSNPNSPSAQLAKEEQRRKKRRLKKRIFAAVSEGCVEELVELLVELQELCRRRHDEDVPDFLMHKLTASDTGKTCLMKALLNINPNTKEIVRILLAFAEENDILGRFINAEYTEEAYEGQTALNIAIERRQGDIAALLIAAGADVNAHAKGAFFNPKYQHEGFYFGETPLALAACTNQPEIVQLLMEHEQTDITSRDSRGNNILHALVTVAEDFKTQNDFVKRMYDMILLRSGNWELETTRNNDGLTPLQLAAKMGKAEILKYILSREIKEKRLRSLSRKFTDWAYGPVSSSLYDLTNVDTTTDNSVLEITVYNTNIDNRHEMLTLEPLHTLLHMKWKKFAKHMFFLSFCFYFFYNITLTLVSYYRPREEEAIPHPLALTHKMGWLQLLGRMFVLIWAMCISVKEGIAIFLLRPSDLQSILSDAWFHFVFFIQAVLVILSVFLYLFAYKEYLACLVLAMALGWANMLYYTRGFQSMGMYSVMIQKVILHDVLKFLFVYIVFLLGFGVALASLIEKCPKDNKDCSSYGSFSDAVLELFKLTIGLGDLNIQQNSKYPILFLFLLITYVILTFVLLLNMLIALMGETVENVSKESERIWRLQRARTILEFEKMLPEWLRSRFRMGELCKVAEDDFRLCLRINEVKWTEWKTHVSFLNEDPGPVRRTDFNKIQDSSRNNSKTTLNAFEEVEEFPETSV
Chain of human TRPA1 (O75762 whole entry): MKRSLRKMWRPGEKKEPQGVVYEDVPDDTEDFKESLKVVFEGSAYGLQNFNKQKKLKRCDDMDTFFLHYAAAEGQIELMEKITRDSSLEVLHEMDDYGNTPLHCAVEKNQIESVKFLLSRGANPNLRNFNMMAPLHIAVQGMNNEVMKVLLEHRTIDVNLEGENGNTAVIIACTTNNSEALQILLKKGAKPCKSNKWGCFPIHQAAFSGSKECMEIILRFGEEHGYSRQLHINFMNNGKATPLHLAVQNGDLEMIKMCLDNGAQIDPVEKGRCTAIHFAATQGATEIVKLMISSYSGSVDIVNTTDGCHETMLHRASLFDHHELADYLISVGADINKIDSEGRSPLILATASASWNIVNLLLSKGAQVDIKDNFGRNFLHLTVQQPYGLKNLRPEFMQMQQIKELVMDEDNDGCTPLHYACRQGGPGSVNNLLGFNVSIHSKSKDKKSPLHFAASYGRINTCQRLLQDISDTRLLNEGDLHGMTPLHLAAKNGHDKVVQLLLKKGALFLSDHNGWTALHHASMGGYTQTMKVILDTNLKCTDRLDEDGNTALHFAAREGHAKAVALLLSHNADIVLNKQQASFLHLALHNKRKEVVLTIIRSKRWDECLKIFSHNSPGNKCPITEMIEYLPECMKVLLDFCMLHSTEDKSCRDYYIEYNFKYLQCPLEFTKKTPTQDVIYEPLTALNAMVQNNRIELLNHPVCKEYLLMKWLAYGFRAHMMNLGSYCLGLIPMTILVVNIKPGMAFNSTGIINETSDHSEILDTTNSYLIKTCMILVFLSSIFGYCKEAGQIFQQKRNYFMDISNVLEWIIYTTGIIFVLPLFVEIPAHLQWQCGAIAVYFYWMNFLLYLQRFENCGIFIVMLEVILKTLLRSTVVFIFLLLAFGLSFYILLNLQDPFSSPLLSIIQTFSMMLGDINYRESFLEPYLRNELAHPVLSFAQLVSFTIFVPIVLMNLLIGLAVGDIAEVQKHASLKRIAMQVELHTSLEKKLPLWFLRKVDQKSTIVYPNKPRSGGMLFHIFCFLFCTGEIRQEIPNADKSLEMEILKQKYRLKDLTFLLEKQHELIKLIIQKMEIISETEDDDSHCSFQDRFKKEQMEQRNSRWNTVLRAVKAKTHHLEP

As usually defined, the pIC50 is −log10 of the IC50, conventionally taken in molar units. Regarding `CN1C(=O)c2c(ncn2CC(=O)Nc2nc(-c3ccc(Br)cc3)cs2)N2CCN=C12` [Compound 1], the pIC50 is less than 5.00 on human TRPV4; less than 5.00 on human TRPV3; less than 5.00 on human TRPM8; less than 5.00 on human TRPV1; 6.04 on human TRPA1.

`CN1C(=O)c2c(ncn2CC(=O)Nc2nc(-c3ccc(C(C)(C)C)cc3)cs2)N2CCN=C12` [Compound 2]: the pIC50 at human TRPV4 was 5.42; on human TRPV3, less than 5.00; at human TRPM8, less than 5.00; on human TRPV1, less than 5.00; at human TRPA1 it was 6.42.

Take `Cn1c(=O)c2c(CC(=O)Nc3nc(-c4ccc(Br)cc4)cs3)cccc2n(C)c1=O` [Compound 3]: the pIC50 is 6.01 on human TRPV4; less than 5.00 at human TRPV3; less than 5.00 at human TRPM8; less than 5.00 on human TRPV1; 7.13 at human TRPA1.

On to `Cn1c(=O)c2c(CC(=O)Nc3nc(-c4ccc(Cl)c(Cl)c4)cs3)cccc2n(C)c1=O` [Compound 4], for which the pIC50 is less than 6.00 at human TRPV4; less than 5.00 on human TRPV3; less than 5.00 on human TRPM8; less than 5.00 at human TRPV1; 7.01 on human TRPA1.

As for `Cn1c(=O)c2c(CC(=O)Nc3nc(-c4ccc(I)cc4)cs3)cccc2n(C)c1=O` [Compound 5], the pIC50 was less than 6.00 at human TRPV4; less than 5.00 on human TRPV3; less than 5.00 on human TRPM8; less than 5.00 at human TRPV1; 7.18 at human TRPA1.

Turning to `Cc1ccc(-c2csc(NC(=O)Cc3cccc4c3c(=O)n(C)c(=O)n4C)n2)cc1` [Compound 6], the pIC50 at human TRPV4 is less than 6.00; on human TRPV3 it was less than 5.00; at human TRPM8 it was less than 5.00; on human TRPV1, less than 5.00; on human TRPA1, 7.01.

In the case of `Cn1c(=O)c2c(CC(=O)Nc3nc(-c4cccc(C(F)(F)F)c4)cs3)cccc2n(C)c1=O` [Compound 7], the pIC50 on human TRPV4 is 5.73; at human TRPV3 it was 5.68; at human TRPM8 it was less than 5.00; on human TRPV1, less than 5.00; on human TRPA1, 7.32.

For `Cn1c(=O)c2c(CC(=O)Nc3ccn(-c4ccc(Cl)cc4)n3)cccc2n(C)c1=O` [Compound 8], the pIC50 is less than 6.00 at human TRPV4; less than 5.00 at human TRPV3; less than 5.00 at human TRPM8; less than 5.00 at human TRPV1; 7.26 at human TRPA1.

For `Cn1c(=O)c2c(CC(=O)Nc3nc(-c4cccc(Cl)c4)cs3)cccc2n(C)c1=O` [Compound 9], the pIC50 at human TRPV4 was less than 6.00; on human TRPV3, less than 6.00; at human TRPM8, less than 5.00; at human TRPV1 it was less than 5.00; on human TRPA1 it was 6.99.

With `Cn1c(=O)c2c(CC(=O)Nc3nc(-c4ccc(C5CCCCC5)cc4)cs3)cccc2n(C)c1=O` [Compound 10], the pIC50 on human TRPV4 was less than 5.00; at human TRPV3, less than 5.00; at human TRPM8, less than 5.00; at human TRPV1, less than 5.00; on human TRPA1, 7.33.

For `Cn1c(=O)c2c(CC(=O)Nc3nc(-c4ccc(C(F)(F)F)cc4)cs3)cccc2n(C)c1=O` [Compound 11], the pIC50 on human TRPV4 is 5.82; on human TRPV3, less than 5.00; on human TRPM8, less than 5.00; at human TRPV1, less than 5.00; on human TRPA1, 7.33.

In the case of `Cn1c(=O)c2c(CC(=O)Nc3nc(-c4ccc(C(C)(C)C)cc4)cs3)cccc2n(C)c1=O` [Compound 12], the pIC50 on human TRPV4 is less than 6.00; on human TRPV3, less than 5.00; at human TRPM8, less than 5.00; on human TRPV1, less than 5.00; on human TRPA1, 7.29.

`Cn1c(=O)c2c(CC(=O)Nc3nc(-c4ccc(F)cc4F)cs3)cccc2n(C)c1=O` [Compound 13]: the pIC50 is 5.55 at human TRPV4; less than 6.00 at human TRPV3; less than 5.00 at human TRPM8; less than 5.00 at human TRPV1; 7.32 on human TRPA1.

Regarding `CC(C)c1ccc(-c2csc(NC(=O)Cc3cccc4c3c(=O)n(C)c(=O)n4C)n2)cc1` [Compound 14], the pIC50 at human TRPV4 was less than 6.00; at human TRPV3, less than 6.00; on human TRPM8, less than 5.00; at human TRPV1, less than 5.00; on human TRPA1, 7.22.

Take `Cn1c(=O)c2c(CC(=O)Nc3nc(-c4ccc(F)c(Cl)c4)cs3)cccc2n(C)c1=O` [Compound 15]: the pIC50 at human TRPV4 was less than 6.00; on human TRPV3, less than 6.00; on human TRPM8, less than 5.00; at human TRPV1, less than 5.00; at human TRPA1, 7.27.

For the compound `CCc1ccc(-c2csc(NC(=O)Cc3cccc4c3c(=O)n(C)c(=O)n4C)n2)cc1` [Compound 17], the pIC50 at human TRPV4 was less than 6.00; on human TRPV3, less than 5.00; on human TRPM8, less than 5.00; at human TRPV1 it was less than 5.00; on human TRPA1, 7.25.

Turning to `Cn1c(=O)c2c(CC(=O)Nc3nc(-c4ccc(C(F)(F)F)c(F)c4)cs3)cccc2n(C)c1=O` [Compound 18], the pIC50 at human TRPV4 is 5.88; on human TRPV3, less than 5.00; at human TRPM8, less than 5.00; at human TRPV1 it was less than 5.00; at human TRPA1, 7.87.

For the compound `Cn1c(=O)c2c(CC(=O)Nc3nc(-c4ccc(C(F)(F)F)cc4F)cs3)cccc2n(C)c1=O` [Compound 19], the pIC50 at human TRPV4 is 5.79; on human TRPV3 it was less than 6.00; on human TRPM8, less than 5.00; at human TRPV1, less than 5.00; on human TRPA1, 7.58.

On to `Cn1c(=O)c2c(CC(=O)Nc3nc(-c4ccc(F)c(C(F)(F)F)c4)cs3)cccc2n(C)c1=O` [Compound 20], for which the pIC50 at human TRPV4 is 5.78; at human TRPV3 it was less than 6.00; on human TRPM8 it was less than 5.00; on human TRPV1, less than 5.00; at human TRPA1 it was 7.70.

With `Cn1c(=O)c2c(CC(=O)Nc3nc(-c4ccc(Cl)c(C(F)(F)F)c4)cs3)cccc2n(C)c1=O` [Compound 21], the pIC50 at human TRPV4 is 6.28; at human TRPV3, less than 5.00; at human TRPM8 it was less than 5.00; on human TRPV1, less than 6.00; on human TRPA1, 7.32.

On to `CCC(=N\O)/C(C)=C/c1ccc(F)cc1` [Compound 89], for which the pIC50 on human TRPV4, at human TRPV3, on human TRPM8 and on human TRPV1 was less than 5.00 in each case.

Take `Cn1c(=O)c2c(CC(=O)Nc3nc(-c4ccc(C(F)(F)F)c(F)c4)cs3)c(Cl)oc2n(C)c1=O` [Compound 99]: the pIC50 at human TRPV4 is 5.83; on human TRPA1, 8.30.

With `Cn1c(=O)c2c(CC(=O)Nc3nc(-c4cc(F)cc(C(F)(F)F)c4)cs3)c(Cl)oc2n(C)c1=O` [Compound 100], the results for the pIC50 at human TRPV4 and at human TRPA1 were less than 5.00 and 8.29, respectively.

Turning to `Cn1c(=O)c2c(CC(=O)Nc3nc(-c4ccc(F)c(C(F)(F)F)c4F)cs3)c(Cl)oc2n(C)c1=O` [Compound 101], the results for the pIC50 at human TRPV4 and at human TRPA1 were less than 6.00 and 8.00, respectively.

With `Cn1c(=O)c2c(CC(=O)Nc3nc(-c4ccc(OC(F)(F)F)c(F)c4)cs3)c(Cl)oc2n(C)c1=O` [Compound 102], the pIC50 is 5.87 at human TRPV4 and 8.12 on human TRPA1.

As for `Cn1c(=O)c2c(CC(=O)Nc3nc(-c4ccc(F)c(OC(F)(F)F)c4)cs3)c(Cl)oc2n(C)c1=O` [Compound 103], the pIC50 at human TRPV4 was 5.40; at human TRPA1, 7.56.

Turning to `Cn1c(=O)c2c(CC(=O)Nc3nc(-c4ccc(C(F)(F)F)c(F)c4F)cs3)c(Cl)oc2n(C)c1=O` [Compound 104], the pIC50 at human TRPV4 is 5.74; on human TRPA1, 8.12.
